Results taken from US20180118747A1, “METHOD OF ISOLATING THEACRINE AND COMPOSITION COMPRISING THEACRINE” (ThermoLife International, LLC, priority 2017, published 2018).

Experiment: Effects of ingested theacrine versus fused theacrine as reported by human subjects
Type: in vivo
Details: oral ingestion
Procedure: Typically, theacrine's effects in human subjects start after 30 minutes of ingestion and last 6-8 hours.

Compound: Cn1c(=O)c2c(n(C)c1=O)n(C)c(=O)n2C [theacrine, 1,3,7,9-tetramethyluric acid]
- start of theacrine's effects after ingestion: 30 min
- duration of theacrine's effects (same amount of theacrine in both forms): 6 to 8 h
- "crash" felt when the theacrine level falls (subject-reported): feels a “crash.”
